# Results taken from PMC3598812, “Evaluation of Anti-Hyperalgesic and Analgesic Effects of Two Benzodiazepines in Human Experimental Pain: A Randomized Placebo-Controlled Study” (PLoS ONE, 2013).
# Assays:
# Assay type in all cases: in vivo, human
# healthy male volunteers [1] = test: Cuff algometry (tourniquet cuff on the leg, VAS-time AUC); set-up: AUC of VAS during cuff algometry: unit not given beside the values; details: mean (SD)
# Text: A tourniquet cuff was applied to the middle of the leg, at the level of the heads of the gastrocnemius and soleus muscle. The cuff was applied at the side contralateral to the side of electrical stimulation in order not to interfere with the positioning of the intramuscular electrodes. During stimulation, the volunteer rated the pain intensity on an electronic VAS scale. The cuff was inflated with compressed air until VAS 6 was reached. The maximum allowed inflating pressure was 200 kPa. The pressure was maintained for 10 min or until the subjects rated the pain as intolerable. The area under the curve VAS-time was computed. For those subjects who felt intolerable pain before 10 min, the time when the cuff was deflated was recorded and VAS 10 was extrapolated until 10 min. Additionally, the maximal VAS during inflation was recorded.
# healthy male volunteers [2] = test: Intramuscular repeated (5 stimuli) electrical stimulation pain threshold; details: for Pain threshold after 5 intramuscular electrical stimuli: mean (SD); for Change in pain threshold after 5 intramuscular electrical stimuli between baseline and 120 minutes: main analysis, pairwise multiple comparison
# Text: (§1) The stimulus burst used for single stimulus was repeated 5 times at 2 Hz, at constant intensity. The current intensity of the 5 stimuli was increased from 1 mA in steps of 0.5 mA until the subjects felt pain during the last 2–3 of the 5 stimuli (indicating temporal summation).
# (§2) A needle was placed in the tibialis anterior muscle, 14 cm distal from the caudal end of the patella and 20 mm in depth. The same single and repeated stimulation patterns and the same procedure described for cutaneous stimulation were used.
# healthy male volunteers [3] = test: Conditioned pain modulation (cold pressor test and pressure algometry); details: difference in pressure pain detection threshold after vs before cold pressor test, mean (SD)
# Text: This method explores the endogenous modulation of nociceptive input. Under normal conditions, pain after application of a “test” nociceptive stimulus is attenuated by the application of an additional conditioning noxious stimulus to a remote body region, reflecting diffuse endogenous inhibition, [20]. In the present study, pressure pain detection threshold and cold pressure test (see below) were used as test and conditioning stimuli, respectively. An increase in pressure pain detection threshold immediately after cold pressure test was an indication of CPM.
# The subjects placed their hand into a container filled with ice water. In order to maximize heterotopic stimulation, the hand contralateral to the side of pressure stimulation was used. The water was regularly mixed to maintain the temperature near to 0°C. The temperature of the water near the hand was monitored by a thermometer with a digital display (±0.1°C). The subjects were asked to keep the hand in the water until they felt an intolerable sensation of pain and were forced to remove the hand from the container, with a maximum time of 2 min.
# Pressure pain detection threshold was measured again at the same time as the subject was withdrawing the hand from the water (one single measurement). CPM was measured as the difference in pressure pain detection threshold between measurements after and before the cold pressure test.
# healthy male volunteers [4] = test: Cutaneous single electrical stimulation pain threshold; details: mean (SD)
# Protocol: (§3) Electrical stimulation was performed through electrodes placed distal to the lateral malleolus. A 25 ms, train-of-five, 1 ms, square-wave impulse (perceived as one stimulus), was delivered by a computer-controlled constant current stimulator (Digitimer DS7A, Neurospec, Letchworth Garden City, UK). The current intensity was increased from 1 mA in steps of 0.5 mA until a pain sensation was evoked.
# (§4) Three assessments were made and the mean of these 3 measurements was used for the data analysis.
# healthy male volunteers [5] = test: Cutaneous repeated (5 stimuli) electrical stimulation, temporal summation threshold; details: mean (SD)
# Text: as §1, §4
# healthy male volunteers [6] = test: Pain rating (VAS) after graded von Frey hair stimulation in the capsaicin hyperalgesic area; details: VAS 0-10, single oral dose (clobazam 20 mg, clonazepam 1 mg, tolterodine 1 mg), mean (SD)
# Protocol: Additionally, mechanical pain sensitivity was assessed using a set of seven weighted pinprick stimuli to obtain a stimulus-response function. The test was applied 1 cm inside the outer border of the pinprick hyperalgesic area, using a set of 7 graded von Frey hair mechanical stimulators with fixed stimulus intensities (custom-made at Aalborg University, Denmark). The flat contact area of the stimulators has a 0.2 mm diameter, and the 7 stimulators exert forces of 8, 16, 32, 64, 128, 256 and 512 mN. The order of stimulation was defined randomly by computer. The stimulators were applied at a rate of 2 s on/2 s off. Subjects were asked to give a pain rating for each stimulus on a 10 cm VAS. Two assessments for each stimulation were made and the mean of these 2 measurements was used for the data analysis.
# healthy male volunteers [7] = test: Intramuscular single electrical stimulation pain threshold (tibialis anterior); details: mean (SD)
# Protocol: as §3, §2
# [8] = baseline before medication, per drug session
# [9] = single oral dose (clobazam 20 mg, clonazepam 1 mg, tolterodine 1 mg), 120 min after medication
# [10] = single oral dose (clobazam 20 mg, clonazepam 1 mg, tolterodine 1 mg), after flumazenil 0.2 mg iv
# [11] = single oral dose (clobazam 20 mg, clonazepam 1 mg, tolterodine 1 mg), 30 min after medication
# [12] = single oral dose (clobazam 20 mg, clonazepam 1 mg, tolterodine 1 mg), 60 min after medication
# [13] = single oral dose (clobazam 20 mg, clonazepam 1 mg, tolterodine 1 mg), 90 min after medication
smiles,measurement,setting,value
Cc1ccc(O)c([C@H](CCN(C(C)C)C(C)C)c2ccccc2)c1 [Tolterodine],AUC of VAS during cuff algometry,healthy male volunteers [1]; [8],3348 (743)
same,AUC of VAS during cuff algometry,healthy male volunteers [1]; [9],2686 (1155)
same,AUC of VAS during cuff algometry,healthy male volunteers [1]; [10],2918 (1021)
same,Pain threshold after 5 intramuscular electrical stimuli,healthy male volunteers [2]; [8],1.6 (1.2) mA
same,Change in pain threshold after 5 intramuscular electrical stimuli between baseline and 120 minutes,healthy male volunteers [2],not
same,Change in pain threshold after 5 intramuscular electrical stimuli between baseline and 120 minutes,healthy male volunteers [2]; listed as tolterodine,no statistically significant change
same,Change in pain detection threshold after 5 intramuscular electrical stimuli from baseline to peak value,"healthy male volunteers [2]; peak value analysis, pairwise comparisons within each drug",not
same,Pain threshold after 5 intramuscular electrical stimuli,healthy male volunteers [2]; [9],1.9 (1.2) mA
same,Pain threshold after 5 intramuscular electrical stimuli,healthy male volunteers [2]; [10],2.2 (1.5) mA
same,Conditioned pain modulation,healthy male volunteers [3]; [8],68 (100) kPa
same,Conditioned pain modulation,healthy male volunteers [3]; [9],72 (114) kPa
same,Conditioned pain modulation,healthy male volunteers [3]; [10],77 (79) kPa
same,Pain threshold after single cutaneous electrical stimulation,healthy male volunteers [4]; [8],9.9 (2.2) mA
same,Pain threshold after single cutaneous electrical stimulation,healthy male volunteers [4]; [11],10.3 (2.6) mA
same,Pain threshold after single cutaneous electrical stimulation,healthy male volunteers [4]; [12],10.7 (2.3) mA
same,Pain threshold after single cutaneous electrical stimulation,healthy male volunteers [4]; [13],10.9 (2.7) mA
same,Pain threshold after single cutaneous electrical stimulation,healthy male volunteers [4]; [9],11.5 (2.3) mA
same,Pain threshold after single cutaneous electrical stimulation,healthy male volunteers [4]; [10],12.1 (2.6) mA
same,Pain threshold after 5 cutaneous electrical stimuli,healthy male volunteers [5]; [8],8.8 (2.3) mA
same,Pain threshold after 5 cutaneous electrical stimuli,healthy male volunteers [5]; [11],9.0 (2.4) mA
same,Pain threshold after 5 cutaneous electrical stimuli,healthy male volunteers [5]; [12],9.2 (2.2) mA
same,Pain threshold after 5 cutaneous electrical stimuli,healthy male volunteers [5]; [13],9.5 (2.2) mA
same,Pain threshold after 5 cutaneous electrical stimuli,healthy male volunteers [5]; [9],9.7 (2.1) mA
same,Pain threshold after 5 cutaneous electrical stimuli,healthy male volunteers [5]; [10],10.0 (2.3) mA
same,VAS after von Frey hair 8 mN,healthy male volunteers [6]; 30 min after medication,1.3 (1.5)
same,VAS after von Frey hair 16 mN,healthy male volunteers [6]; 30 min after medication,1.7 (1.8)
same,VAS after von Frey hair 32 mN,healthy male volunteers [6]; 30 min after medication,2.5 (1.9)
same,VAS after von Frey hair 64 mN,healthy male volunteers [6]; 30 min after medication,3.2 (2.3)
same,VAS after von Frey hair 128 mN,healthy male volunteers [6]; 30 min after medication,3.4 (2.2)
same,VAS after von Frey hair 256 mN,healthy male volunteers [6]; 30 min after medication,4.2 (2.1)
same,VAS after von Frey hair 512 mN,healthy male volunteers [6]; 30 min after medication,4.9 (2.0)
same,VAS after von Frey hair 8 mN,healthy male volunteers [6]; 60 min after medication,1.2 (1.3)
same,VAS after von Frey hair 16 mN,healthy male volunteers [6]; 60 min after medication,1.9 (1.9)
same,VAS after von Frey hair 32 mN,healthy male volunteers [6]; 60 min after medication,2.7 (2.2)
same,VAS after von Frey hair 64 mN,healthy male volunteers [6]; 60 min after medication,2.9 (1.8)
same,VAS after von Frey hair 128 mN,healthy male volunteers [6]; 60 min after medication,3.5 (2.2)
same,VAS after von Frey hair 256 mN,healthy male volunteers [6]; 60 min after medication,4.2 (2.1)
same,VAS after von Frey hair 512 mN,healthy male volunteers [6]; 60 min after medication,5.2 (2.0)
same,VAS after von Frey hair 8 mN,healthy male volunteers [6]; 90 min after medication,1.2 (1.4)
same,VAS after von Frey hair 16 mN,healthy male volunteers [6]; 90 min after medication,1.6 (1.9)
same,VAS after von Frey hair 32 mN,healthy male volunteers [6]; 90 min after medication,2.2 (1.4)
same,VAS after von Frey hair 64 mN,healthy male volunteers [6]; 90 min after medication,2.8 (2.0)
same,VAS after von Frey hair 128 mN,healthy male volunteers [6]; 90 min after medication,3.1 (2.0)
same,VAS after von Frey hair 256 mN,healthy male volunteers [6]; 90 min after medication,4.2 (2.0)
same,VAS after von Frey hair 512 mN,healthy male volunteers [6]; 90 min after medication,4.9 (2.1)
same,VAS after von Frey hair 8 mN,healthy male volunteers [6]; 120 min after medication,1.0 (0.9)
same,VAS after von Frey hair 16 mN,healthy male volunteers [6]; 120 min after medication,1.4 (1.3)
same,VAS after von Frey hair 32 mN,healthy male volunteers [6]; 120 min after medication,1.9 (1.3)
same,VAS after von Frey hair 64 mN,healthy male volunteers [6]; 120 min after medication,2.3 (1.5)
same,VAS after von Frey hair 128 mN,healthy male volunteers [6]; 120 min after medication,2.9 (2.0)
same,VAS after von Frey hair 256 mN,healthy male volunteers [6]; 120 min after medication,4.1 (2.5)
same,VAS after von Frey hair 512 mN,healthy male volunteers [6]; 120 min after medication,4.8 (2.2)
same,VAS after von Frey hair 8 mN,healthy male volunteers [6]; after flumazenil 0.2 mg iv,1.1 (1.2)
same,VAS after von Frey hair 16 mN,healthy male volunteers [6]; after flumazenil 0.2 mg iv,1.1 (0.9)
same,VAS after von Frey hair 32 mN,healthy male volunteers [6]; after flumazenil 0.2 mg iv,2.1 (1.6)
same,VAS after von Frey hair 64 mN,healthy male volunteers [6]; after flumazenil 0.2 mg iv,2.6 (1.7)
same,VAS after von Frey hair 128 mN,healthy male volunteers [6]; after flumazenil 0.2 mg iv,2.6 (1.5)
same,VAS after von Frey hair 256 mN,healthy male volunteers [6]; after flumazenil 0.2 mg iv,4.1(1.7)
same,VAS after von Frey hair 512 mN,healthy male volunteers [6]; after flumazenil 0.2 mg iv,5.0 (2.2)
same,Pain threshold after single intramuscular electrical stimulation,healthy male volunteers [7]; [8],1.8 (1.2) mA
same,Pain threshold after single intramuscular electrical stimulation,healthy male volunteers [7]; [9],2.2 (1.2) mA
same,Pain threshold after single intramuscular electrical stimulation,healthy male volunteers [7]; [10],2.7 (1.7) mA
